Source: patent US12533408B2, “Treatment regimen for the treatment of autoimmune disorders” (Merck Patent GmbH, priority 2020, dated 2026)
“And” between values parts separate entries of the source, which are not always exact repeats. Equal values may be shown once. “Also recorded” adds a separate entry of the source.

Key:
lymphocytes = assay: Absolute lymphocyte count (ALC) in vaccinated MAGNIFY-MS patients; format: in vivo, human
[1] = system: Influenza strain Victoria (Colorado/B); assay: Hemagglutination inhibition (HAI) antibody titer, Victoria (Colorado/B); format: in vivo, influenza B virus; conditions: 12 patients
[2] = system: Influenza strain Yamagata (Phuket/B); assay: Hemagglutination inhibition (HAI) antibody titer, Yamagata (Phuket/B); format: in vivo, influenza B virus; conditions: 12 patients
seasonal influenza = format: in vivo, influenza A and B
[3] = system: varicella zoster virus (VZV); format: in vivo; conditions: all time points examined, MAGNIFY patients
[4] = system: lymphocytes (ALC, CD19+ B, CD4+ T, CD8+ T); assay: Post hoc analysis of ALC, lymphocyte subsets and lymphopenia by age (CLARITY, CLARITY Extension, ORACLE-MS, PREMIERE)
Description: Assessments included incidence and severity of Grade ≥3 lymphopenia; severity of Grade ≥3 lymphopenia was defined based on the NCI CTCAE v3.0 toxicity grading system as ALC levels <500 cells/μL. The time to recover from Grade 3 lymphopenia to Grade ≤2 (ALC ≥500 cells/μL) and to Grade ≤1 (ALC ≥800 cells/μL) were also assessed. […] All assessments were performed for each baseline age group (≤50 years and >50 years).

[5] = TEAEs of viral and bacterial infections in patients with Grade ≥3 lymphopenia, by age; format: in vivo, human; conditions: for incidence of bronchitis / incidence of herpes zoster / incidence of pneumonia / incidence of respiratory tract infection: Grade ≥3 lymphopenia; for overall incidence of TEAEs of viral and bacterial infections: Weeks 0-96, Grade ≥3 lymphopenia
Description: The definitions used for before, during, and after lymphopenia were: before (before the start date of the first lymphopenia Grade ≥3), during (on or after the start date of the first lymphopenia up and including to the last date of the last lymphopenia), and after (after the end date of the last lymphopenia). The incidence of TEAEs were summarized by Preferred Term (PT) and were coded according to the MedDRA dictionary Version 20.0. All analyses were performed using Statistical Analysis Software (SAS®), Version 9.4 or higher.

COVID-19 [6] = assay: COVID-19 cases in cladribine tablets treated MS patients (Merck KGaA Global Patient Safety Database); format: in vivo, human
Description: On this date, there were 46 patients with confirmed or suspected COVID-19 within the safety database. Patient age was available for 35 patients, with a range of 22-67 years. There were 26 females, 12 males, and 8 patients for whom gender was not reported. Cases were defined as confirmed if a confirmatory diagnostic test was reported as positive. If no confirmatory test was performed or reported, then cases were described as suspected. […] Cases were designated as serious if they fulfilled the criteria of hospitalized, considered to be life-threatening, or medically significant. In keeping with usual pharmacovigilance practices, outcome was classified as recovered, recovering, not recovered, fatal, or not reported.

COVID-19 [7] = assay: COVID-19 course in CLARIFY-MS and MAGNIFY-MS patients (case reports); format: in vivo, human
Description: Disease course is reported for each of the 3 patients with respect to severity of symptoms, confirmatory status of COVID-19, hospitalisation requirement and recovery status.
Further to the overall outcome for each of the 3 patients from the phase IV studies CLARIFY-MS and MAGNIFY-MS, data on file includes some detail regarding extent and nature of symptoms COVID-19 and concomitant diseases and medications (Table 15).
Aside from COVID-19, no other adverse events or relevant concomitant diseases and medications are reported for Patient 3.

[8] = human, in vivo
[9] = system: lymphocytes (ALC, CD19+ B, CD4+ T, CD8+ T); conditions: second treatment year (Giovannoni et al., 2010); cited from earlier work
clinical = conditions: human, plasma, po, 10 mg
IgG and IgM = assay: Serum immunoglobulin levels (IgG, IgM) under cladribine tablets
[10] = Incidence rates of infections in the clinical trial program of cladribine tablets
[11] = Patient Canada VZV-70056800222530003, month 0, 9.7 wk after Shingrix, before first Mavenclad dose
[12] = Patient Canada VZV-70056800222530003, month 3, 23.0 wk after Shingrix, 13.3 wk after first Mavenclad dose

**Q.** What does the source list for `Nc1nc(Cl)nc2c1ncn2[C@H]1C[C@H](O)[C@@H](CO)O1` [cladribine tablets, Cladribine]?
**A.** absolute lymphocyte levels (lymphocytes; Patient 70056800222010002, month 14, 1 month after vaccination): 700 cells/µL; absolute lymphocyte levels (lymphocytes; Patient 70056800227010005, Month 6): 900 cells/µL; ALC (lymphocytes; Patient Australia VZV-70056800221260001, month 2, 21.0 wk after Zostavax, 11.1 wk after first Mavenclad dose): 960 cells/μL; ALC (lymphocytes; Patient Canada VZV-70056800222530003, Scr, 1.1 wk after Shingrix, 8.6 wk before first Mavenclad dose): 2,100 cells/μL; ALC (lymphocytes; Patient Canada VZV-70056800222530003, month 2, 18.0 wk after Shingrix, 8.3 wk after first Mavenclad dose): 800 cells/μL; ALC (lymphocytes; Patient Canada VZV-70056800222530003, month 12): 1,110 cells/μL; ALC (lymphocytes; Patient Finland VZV-70056800221620004, month 2, 14.3 wk after Zostavax, 7.9 wk after first Mavenclad dose): 670 cells/μL; lymphocytes after first treatment course (lymphocytes; Shingrix case): 800 cells/µL; 2-fold change [1]: 17%; 4-fold change [1]: 8%; Post-vacc seroprotection [1]: 92%; Pre-vacc seroprotection [1]: 83%; 2-fold change [2]: 17%; 4-fold change [2]: 0%; Post-vacc seroprotection [2]: 92%; Pre-vacc seroprotection [2]: 75%; proportion of previously seropositive patients (HAI≥40) with ≥2-fold increase against at least 1 strain (seasonal influenza; 8 patients): 87.5%; proportion of previously seropositive patients (HAI≥40) with ≥4-fold increase against at least 1 strain (seasonal influenza; 8 patients): 37.5%; post-vaccination seroprotection, all Influenza strains (seasonal influenza; all vaccinated patients): 92-100%; rate of 2-fold change in AB titer, all strains (seasonal influenza; in vivo): 17-67%; post-vaccination antibody titer against VZV, protective titer [3]: ≥ 100 IU/L; Median (range) time to recovery from the first Grade ≥3 lymphopenia to Grade ≤1 ([4]; Age >50): 6.06 (range: 0.2-46.5) months; Median (range) time to recovery from the first Grade ≥3 lymphopenia to Grade ≤2 ([4]; Age >50): 1.54 (range: 0.2-29.9) months; mean (SD) number of episodes of recovery from Grade ≥3 lymphopenia to Grade ≤1 per patient ([4]; Age >50): 1.3 (0.5); Median (range) time to recovery from the first Grade ≥3 lymphopenia to Grade ≤1 ([4]; Age ≤50): 5.49 (range: 0.2-88.4) months; Median (range) time to recovery from the first Grade ≥3 lymphopenia to Grade ≤2 ([4]; Age ≤50): 1.18 (range: 0.2-22.3) months; mean (SD) number of episodes of recovery from Grade ≥3 lymphopenia to Grade ≤1 per patient ([4]; Age ≤50): 1.2 (0.5); ALC decrease from baseline ([4]; Week 9, Age >50): 52.4%; CD8+ T lymphocytes decrease from baseline ([4]; Week 9, Age >50): 43.4%; CD19+ B lymphocytes decrease from baseline ([4]; Week 9, Age >50): 93.8%; median (range) ALC at Year 1 nadir ([4]; Week 9, Age >50): 0.9 (0.3-2.5) ×10^9 cells/L; ALC decrease from baseline ([4]; Week 9, Age ≤50): 43.5%; CD19+ B lymphocytes decrease from baseline ([4]; Week 9, Age ≤50): 90.2%; median (range) ALC at Year 1 nadir ([4]; Week 9, Age ≤50): 1.05 (0.2-6.7) ×10^9 cells/L; CD4+ T lymphocytes decrease from baseline ([4]; Week 60, Age ≤50): 66.4%; CD4+ T lymphocytes decrease from baseline ([4]; Week 72, Age >50): 73.7%; CD8+ T lymphocytes decrease from baseline ([4]; Week 72, Age ≤50): 41.8%; incidence of Grade ≥3 lymphopenia ([4]; Weeks 0-96, Age >50 (30/110)): 27.2%; incidence of Grade ≥3 lymphopenia ([4]; Weeks 0-96, Age ≤50 (205/813)): 25.2%; Grade 4 lymphopenia episodes ([4]; Year 1): No Grade 4 lymphopenia episodes; Grade ≥3 lymphopenia, patients ([4]; Year 2, Age >50): 20.0%; Grade ≥3 lymphopenia, patients ([4]; Year 2, Age ≤50): 18.7%; Grade 4 lymphopenia, patients ([4]; Year 2, aged >50 years (1 patient)): 1.0%; Grade 4 lymphopenia, patients ([4]; Year 2, aged ≤50 years (2 patients)): 0.3%; ALC decrease from baseline ([4]; Year 2 nadir, Age >50): 58.2%; ALC decrease from baseline ([4]; Year 2 nadir, Age ≤50): 55.4%; recovery of ALC and lymphocyte subsets (CD19+ B and CD4+ T) to normal levels ([4]; after last dose in treatment year 2): 30-43 weeks; Grade ≥3 lymphopenia, patients ([4]; treatment Year 1, Age >50): 10.0%; Grade ≥3 lymphopenia, patients ([4]; treatment Year 1, Age ≤50): 8.3%; TEAEs of viral and bacterial infections during the Year 1 Grade ≥3 lymphopenia episode ([5]; Age >50): 30%; patients with TEAEs severe in intensity (pneumonia and bronchitis) ([5]; Age >50 (1 patient)): 3.3%; patients with TEAEs mild to moderate in intensity ([5]; Age >50 (16 patients)): 53.3%; TEAEs of viral and bacterial infections during the Year 1 Grade ≥3 lymphopenia episode ([5]; Age ≤50): 21.5%; patients with TEAEs mild to moderate in severity ([5]; Age ≤50 (103 patients)): 50.2%; incidence of bronchitis ([5]; Age >50): 10%; incidence of herpes zoster ([5]; Age >50): 13.3%; incidence of pneumonia ([5]; Age >50): 6.7%; incidence of respiratory tract infection ([5]; Age >50): 6.7%; incidence of bronchitis ([5]; Age ≤50): 5.9%; incidence of herpes zoster ([5]; Age ≤50): 3.4%; incidence of pneumonia ([5]; Age ≤50): 1.0%; incidence of respiratory tract infection ([5]; Age ≤50): 1.5%; overall incidence of TEAEs of viral and bacterial infections ([5]; Age >50 (17/30)): 56.7%; overall incidence of TEAEs of viral and bacterial infections ([5]; Age ≤50 (105/205)): 51.2%; most recent lymphocyte count, median (COVID-19 [6]; 9/46 patients, min 0.24, max 1.2): 0.7 G/L; median time to onset of COVID-19 from last dose (COVID-19 [6]; 21/46 patients): 180 days; range of time to onset of COVID-19 from last dose (COVID-19 [6]; 21/46 patients): 3 to 559 days; COVID-19 cases medically significant (COVID-19 [6]; confirmed cases): 1 cases; COVID-19 cases requiring hospitalisation (COVID-19 [6]; confirmed cases): 3 cases; COVID-19 outcome: Not resolved (COVID-19 [6]; confirmed cases): 1 cases; COVID-19 outcome: Recovered (COVID-19 [6]; confirmed cases): 8 cases; COVID-19 outcome: Recovering (COVID-19 [6]; confirmed cases): 2 cases; confirmed COVID-19 cases (COVID-19 [6]; of 46 total cases): 18 cases; suspected COVID-19 cases (COVID-19 [6]; of 46 total cases): 28 cases; patients with confirmed or suspected COVID-19 (COVID-19 [6]; of approximately 19,000 treated, as of 29 June 2020): 46 patients; lymphocyte count between most recent course and onset of COVID-19 (COVID-19 [6]; patient from the Netherlands): 0.87 G/L; COVID-19 cases medically significant (COVID-19 [6]; suspected cases): 1 cases; COVID-19 cases requiring hospitalisation (COVID-19 [6]; suspected cases): 1 cases; COVID-19 outcome: Recovered (COVID-19 [6]; suspected cases): 6 cases; COVID-19 outcome: Recovering (COVID-19 [6]; suspected cases): 5 cases; COVID-19 cases that received mechanical ventilation (COVID-19 [6]; suspected or confirmed): None; COVID-19 deaths (COVID-19 [6]; suspected or confirmed): no deaths; COVID-19 symptoms in the majority of patients (COVID-19 [6]; suspected or confirmed): mild to moderate respiratory symptoms; Lymphocyte counts (COVID-19 [7]; BL (baseline), c1-c3 = Patient 1, 2 (CLARIFY-MS), 3 (MAGNIFY-MS)): 1.48 G/L and 2.80 G/L and 2.39 G/L; Lymphocyte counts (COVID-19 [7]; M14 (January 2020), Patient 1): 0.49 G/L; Lymphocyte counts (COVID-19 [7]; Uns v. (17 Mar. 2020), Patient 2): 0.20 G/L; Adverse events (COVID-19 [7]; c1-c3 = Patient 1, 2, 3): Asthmatic bronchitis and Tachycardia and None and Swollen glands and Angina pectoris and Poss. reaction of EBV -; COVID-19 severity (COVID-19 [7]; c1-c3 = Patient 1, 2, 3): SAE, Severe,; also recorded: Mild, not serious (no; herpes zoster incidence [8]: 0.83 episodes per 100 PY; incidence rate of serious infections [8]: 0.8 /100 PY; incidence rate of total infections [8]: 24.9 events per 100 patient-years (PY); median ALC [9]: above 800 cells/mL; bioavailability (clinical): 45.6%; IgG immunoglobulin levels vs baseline (IgG and IgM; 1, 2, 3, 6 and 12 month): comparable to baseline; IgG, change vs baseline (IgG and IgM; Month 3): +10%; IgM, change vs baseline (IgG and IgM; Month 3): −5%; IgG, change vs baseline (IgG and IgM; Month 6): +11%; IgM, change vs baseline (IgG and IgM; Month 6): −13%; IgG, change vs baseline (IgG and IgM; Month 12): +3%; IgM, change vs baseline (IgG and IgM; Month 12): +21%; IgG levels (IgG and IgM; Patient 70056800222520001): not affected; IgG immunoglobulin levels (IgG and IgM; Patient 70056800227010005, any timepoint after treatment): not affected; IgM (IgG and IgM; Patient Australia VZV-70056800221260001, month 3, 24.6 wk after Zostavax, 14.7 wk after first Mavenclad dose): 59 mg/dL; IgG (IgG and IgM; [11]): 1,410 mg/dL; IgM (IgG and IgM; [11]): 190 mg/dL; IgG (IgG and IgM; [12]): 1,510 mg/dL; IgM (IgG and IgM; [12]): 166 mg/dL; IgM levels (IgG and IgM; month 12, still in the normal range): slightly decreased; immunoglobulin numbers after cladribine treatment (IgG and IgM; various time points): not decreased; influenza incidence ([10]; lymphopenia grade 0-2): 2.75 cases per 100 PY; influenza incidence ([10]; lymphopenia grade 3-4): 3.35 /100 PY
